# Measured values reported in patent US12077501B2, “Compounds and compositions for intracellular delivery of agents” (ModernaTX, Inc., priority 2017, dated 2024).
# Experiments:
# [1] = pKa of nanoparticle compositions; assay type: physicochemical
# hEPO expression [2] = assay: hEPO expression in CD-1 mice compared with MC3; assay type: in vivo; conditions: intravenous, 0.5 mpk, Table 7e
# Excerpt: (§1) In contrast, hEPO expression in rats induced by administration of a nanoparticle composition including a compound according to one of formulae (I), (Ia1)-(Ia6), (Ib), (II), (IIa), (III), and (IIIa) was substantially […] than that measured for MC3. […] Tables 7c and 7d show additional protein expressions and clearance data from compositions with various compounds disclosed herein as compared to with MC3. Tables 7e, 7f and 7g show hEPO expression data in CD-1 mice at a dose of 0.5 mpk.
# [3] = Particle size and polydispersity index of nanoparticle compositions (Zetasizer Nano ZS); assay type: physicochemical
# Description: A Zetasizer Nano ZS (Malvem Instruments Ltd, Malvem, Worcestershire, UK) can be used to determine the particle size, the polydispersity index (PDI) and the zeta potential of the nanoparticle compositions in 1×PBS in determining particle size and 15 mM PBS in determining zeta potential.
# [4] = Encapsulation efficiency of RNA (QUANT-IT RIBOGREEN RNA assay); assay type: physicochemical
# Description: For nanoparticle compositions including an RNA, a QUANT-IT™ RIBOGREEN® RNA assay (Invitrogen Corporation Carlsbad, CA) can be used to evaluate the encapsulation of an RNA by the nanoparticle composition. The samples are diluted to a concentration of approximately 5 μg/mL in a TE buffer solution (10 mM Tris-HCl, 1 mM EDTA, pH 7.5). 50 μL of the diluted samples are transferred to a polystyrene 96 well plate and either 50 μL of TE buffer or 50 μL of a 2% Triton X-100 solution is added to the wells. The plate is incubated at a temperature of 37° C. for 15 minutes. The RIBOGREEN® reagent is diluted 1:100 in TE buffer, and 100 μL of this solution is added to each well. The fluorescence intensity can be measured using a fluorescence plate reader (Wallac Victor 1420 Multilablel Counter; Perkin Elmer, Waltham, MA) at an excitation wavelength of, for example, about 480 nm and an emission wavelength of, for example, about 520 nm. The fluorescence values of the reagent blank are subtracted from that of each of the samples and the percentage of free RNA is determined by dividing the fluorescence intensity of the intact sample (without addition of Triton X-100) by the fluorescence value of the disrupted sample (caused by the addition of Triton X-100).
# [5] = Lipid purity change after storage in EtOH for 96 h at 25 or 37 °C; assay type: physicochemical
# Description: Nanoparticle compositions including a therapeutic and/or prophylactic agent can be optimized according to the selection of a compound according to one of formulae (I), (Ia1)-(Ia10), (Ib), (Ic), (Id), (Id1)-(Id10), (Ie), (Ie1)-(Ie6), (II), (IIa), (III), and (IIIa), the selection of additional lipids, the amount of each lipid in the lipid component, and the wt:wt ratio of the lipid component to the therapeutic and/or prophylactic agent, as described herein. Initial studies were performed to compare the delivery efficiency of nanoparticle compositions including various compounds according to one of formulae (I), (Ia1)-(Ia10), (Ib), (Ic), (Id), (Id1)-(Id10), (Ie), (Ie1)-(Ie6), (II), (IIa), (III), and (IIIa). The cationic lipid MC3 is a current standard in the art. Also determined was the stability of nanoparticles of the disclosure, i.e., the purity after storage in EtOH for 96h at 25° C. or 37° C. (Table Id).
# [6] = Lipid clearance: % dose remaining in liver of CD-1 mice; assay type: in vivo; conditions: intravenous, 0.5 mg/kg, CD-1 mouse, Table 8a
# Excerpt: as §1
# hEPO expression [7] = assay: hEPO (miR126 + miR142) mRNA expression, Tables 8b-8e; assay type: in vivo; conditions: Table 8b
# [8] = Table 1c, nanoparticle compositions
# [9] = Table 1d, Formulated with lipid:Chol:DOPE:PEG 1 40:38.5:20:1.5
SMILES,"PDI [3, 8]","Size (nm) [3, 8]","EE (%) [4, 8]",pKa ([1]; Table 1c),% Dose Remaining 24 hr [6],AUC (p/s*h) CD-1 mice 0.5 mpk (hEPO expression [2]),other results
"CCCCCCCCCN(CCCCCCCCC)CCN(CCCCCCCCC)CC(=O)N1CCN(C(=O)CN(CCCCCCCCC)CCCOC(=O)CCCCC)CC1 [Compound 56, 3-((2-(4-(N-(2-(Dinonylamino)ethyl)-N-nonylglycyl)piperazin-1-yl)-2-oxoethyl)(nonyl)amino)propyl hexanoate]",–,–,–,–,–,4.52E+07 p/s*h,pKa ([1]; Table 1b): 6.94
"CCCCCCCCCCCCCCN(CCCCCCCC(=O)OCCCCC)CCC1CCCN(C(=O)CN(CCCCCCCCC)CCN(CCCCCCCCC)CCCCCCCCC)C1 (stereo not drawn) [Compound 120, Pentyl 8-((2-(1-(N-(2-(dinonylamino)ethyl)-N-nonylglycyl)piperidin-3-yl)ethyl)(tetradecyl)amino)octanoate]",0.21,78.7 nm,99.0%,6.49,9.32%,4.17E+07 p/s*h,"Lipid % change purity in EtOH, 25° C., 96 h [5]: 0.8%; Lipid % change purity in EtOH, 37° C., 96 h [5]: 2.9%"
"CCCCCCCCCN(CCCCCCCCC)CCN(CCCCCCCCC)CC(=O)N1CCC(COC(=O)CN(CCCCCCCCC)CCCCCCCCC)C1 (stereo not drawn) [Compound 102, (1-(N-(2-(Dinonylamino)ethyl)-N-nonylglycyl)pyrrolidin-3-yl)methyl dinonylglycinate]",0.23,71.5 nm,97.6%,5.85,–,6.34E+06 p/s*h,"Lipid % change purity in EtOH, 25° C., 96 h [5]: 14.8%; Lipid % change purity in EtOH, 37° C., 96 h [5]: 31.5%"
"CCCCCCCCCCCCCCN(CCCCCC(=O)OCCCCCCC)CCC1CCN(C(=O)CN(CCCCCCCCC)CCN(CCCCCCCCC)CCCCCCCCC)C1 (stereo not drawn) [Compound 125, Heptyl 6-((2-(1-(N-(2-(dinonylamino)ethyl)-N-nonylglycyl)pyrrolidin-3-yl)ethyl)(tetradecyl)amino)hexanoate]",–,–,–,6.89,2.74%,7.89E+06 p/s*h,–
"CCCCCCCCCN(CCCCCCCCC)CCN(CCCCCCCCC)CC(=O)N1CCN(C(=O)CN(CCCCCCCCC)CCCC(=O)OCCCCC)CC1 [Compound 45, Pentyl 4-((2-(4-(N-(2-(dinonylamino)ethyl)-N-nonylglycyl)piperazin-1-yl)-2-oxoethyl)(nonyl)amino)butanoate]",–,–,–,–,–,6.98E+07 p/s*h,–
"CCCCCCCCCCCCCCN(CCCCCCCCCCCC(=O)OC)CCC1CCCN(C(=O)CN(CCCCCCCCC)CCN(CCCCCCCCC)CCCCCCCCC)C1 (stereo not drawn) [Compound 123, Methyl 12-((2-(1-(N-(2-(dinonylamino)ethyl)-N-nonylglycyl)piperidin-3-yl)ethyl)(tetradecyl)amino)dodecanoate]",–,–,–,6.51,3.75%,5.84E+07 p/s*h,–
"CCCCCCCCCN(CCCCCCCCC)CCC1CCN(C(=O)CN(CCCCCCCCC)CCN(CCCCCCCCC)CCCCCCCCC)CC1 [Compound 49, 2-((2-(Dinonylamino)ethyl)(nonyl)amino)-1-(4-(2-(dinonylamino)ethyl)piperidin-1-yl)ethan-1-one]",–,–,–,–,–,1.59E+08 p/s*h,–
"CCCCCCCCCN(CCCCCCCCC)CC(=O)N1CCN(C(=O)CN(CCCCCCCCC)CCCCCCCCC)CC1 [Compound 112, 1,1′-(piperazine-1,4-diyl)bis(2-(dinonylamino)ethan-1-one)]",0.22,73.5 nm,97.1%,6.14,46.37%,1.78E+04 p/s*h,–
"CCCCCCCCCN(CCCCCCCCC)CCC(=O)N1CCN(C(=O)CCN(CCCCCCCCC)CCN(CCCCCCCCC)CCCCCCCCC)CC1 [Compound 52, 3-(Dinonylamino)-1-(4-(3-((2-(dinonylamino)ethyl)(nonyl)amino)propanoyl)piperazin-1-yl)propan-1-one]",–,–,–,–,–,7.78E+07 p/s*h,–
"CCCCCCCCCN(CCCCCCCCC)CCN(CCCCCCCCC)CC(=O)OCCOC(=O)CN(CCCCCCCCC)CCCCCCCCC [Compound 150, 2-((N-(2-(Dinonylamino)ethyl)-N-nonylglycyl)oxy)ethyl dinonylglycinate]",–,–,–,5.10,57.89%,2.29E+05 p/s*h,–
"CCCCCCCCCN(CCCOC(=O)CCCCC)CCC1CCN(C(=O)CN(CCCCCCCCC)CCN(CCCCCCCCC)CCCCCCCCC)CC1 [Compound 61, 3-((2-(1-(N-(2-(Dinonylamino)ethyl)-N-nonylglycyl)piperidin-4-yl)ethyl)(nonyl)amino)propyl hexanoate]",–,–,–,–,–,6.29E+07 p/s*h,pKa ([1]; Table 1b): 6.61
"CCCCCCCCCN(CCCCCCCCC)CCN(CCCCCCCCC)CC(=O)N(C)CCCCN(C)C(=O)CN(CCCCCCCCC)CCCCCCCCC [Compound 159, 2-(dinonylamino)-N-(4-(2-((2-(dinonylamino)ethyl)(nonyl)amino)-N-methylacetamido)butyl)-N-methylacetamide]",–,–,–,–,–,–,"PDI [3, 9]: 0.12; Size (nm) [3, 9]: 76.5 nm; EE (%) [4, 9]: 92.9%; AUC (hEPO expression [7]): 6.56e+07 pg·h/mL"
"CCCCCCCCCN(CCCC(=O)OCCCCC)CCN(CCCCCCCCC)CC(=O)N1CCN(C(=O)CN(CCCCCCCCC)CCCC(=O)OCCCCC)CC1 [Compound 71, Pentyl 4-(nonyl(2-(4-(N-nonyl-N-(2-(nonyl(4-oxo-4-(pentyloxy)butyl)amino)ethyl)glycyl)piperazin-1-yl)-2-oxoethyl)amino)butanoate]",–,–,–,–,–,2.48E+07 p/s*h,pKa ([1]; Table 1b): 6.44
"CCCCCCCCCN(CCCCC(=O)OCCCC)CCC1CCN(C(=O)CN(CCCCCCCCC)CCN(CCCCCCCCC)CCCCCCCCC)CC1 [Compound 60, Butyl 5-((2-(1-(N-(2-(dinonylamino)ethyl)-N-nonylglycyl)piperidin-4-yl)ethyl)(nonyl)amino)pentanoate]",–,–,–,–,–,4.86E+07 p/s*h,pKa ([1]; Table 1b): 6.66

# Now from value to compound, other results behind:
"PDI [3, 8]","Size (nm) [3, 8]","EE (%) [4, 8]",pKa ([1]; Table 1c),% Dose Remaining 24 hr [6],SMILES,AUC (p/s*h) CD-1 mice 0.5 mpk (hEPO expression [2]),other results
0.20,80.1 nm,97.6%,6.94,0.05%,"CCCCCCCCCCCCCCN(CCCOC(=O)CCCCCCCCC)CC(=O)N1CCN(C(=O)CN(CCCCCCCCC)CCN(CCCCCCCCC)CCCCCCCCC)CC1 [Compound 89, 3-((2-(4-(N-(2-(Dinonylamino)ethyl)-N-nonylglycyl)piperazin-1-yl)-2-oxoethyl)(tetradecyl)amino)propyl decanoate]",1.36E+08 p/s*h,"Lipid % change purity in EtOH, 25° C., 96 h [5]: 2.3%; Lipid % change purity in EtOH, 37° C., 96 h [5]: 3.9%"
0.20,82.3 nm,97.8%,6.7,55.92%,"CCCCCC/C=C\COC(=O)CCCN(CCCCCCCCCCCCCC)CC(=O)N1CCN(C(=O)CN(CCCCCCCCC)CCN(CCCCCCCCC)CCCCCCCCC)CC1 [Compound 118, (Z)-Non-2-en-1-yl 4-((2-(4-(N-(2-(dinonylamino)ethyl)-N-nonylglycyl)piperazin-1-yl)-2-oxoethyl)(tetradecyl)amino)butanoate]",1.64E+08 p/s*h,–
0.17,85.4 nm,98.5%,7.02,80.27%,"CCCCCCCCCN(CCCCCCCCC)CCN(CCCCCCCCC)CC(=O)N1CCN(C(=O)CN(CCCCCCCCC)CCCOC(=O)CC(C)CCC)CC1 (stereo not drawn) [Compound 131, 3-((2-(4-(N-(2-(Dinonylamino)ethyl)-N-nonylglycyl)piperazin-1-yl)-2-oxoethyl)(nonyl)amino)propyl 3-methylhexanoate]",–,"Lipid % change purity in EtOH, 25° C., 96 h [5]: 11.96%; Lipid % change purity in EtOH, 37° C., 96 h [5]: 12.43%"
